For assay [1], the system named is P-selectin. As to the kind of experiment: P-Selectin adhesion receptor binding: ELISA, inhibition of P-selectin binding to immobilized sulfatides (cell free). Conditions: 45 minutes at 37° C., pH 8.0. How it is done: Based on the availability of soluble forms of P-selectin prepared as described by Aruffo, A. et al., Cell, 67, 35-44 (1991), a binding ELISA based assay modified from Foxall, et al., J. Cell Biol., 117, 1895-902 (1992) was developed to measure inhibitors of P-selectin binding to immobilized sulfatides. Such inhibitors were tested in the assay described below.
0.1 ml of sulfatide (SIGMA) at 1 μg/ml in MeOH was added to 48 wells of a 96-well ELISA plate (ProBind, Falcon) and allowed to dry overnight at room temperature. Another set of 48 wells were incubated with the solvent (methanol, Fisher Scientific). The next day the antigen/solvent coated plates were blocked for 1.5 hours at room temperature with 5% BSA (ICN) in buffer containing 20 mM Hepes, 1 mM CaCl2 and 0.15M NaCl, pH 8.0. […] Bound complexes were detected by addition of substrate buffer (95 mM NaOAc.3H2 O, 5 mM citric acid monohydrate, 1.4 mM urea/H2 O2) containing 3,3',5,5'-tetramethylbenzidine (SIGMA). Reactions were stopped by the addition of 3N sulfuric acid and the absorbance read on an ELISA reader at dual wavelengths 450 and 630 nm. […] The data is obtained as percent inhibition of specific binding [formula] and a plot of dose vs. percent inhibition of Rg binding is generated in which IC50 (μM) is calculated and reported as cell free data in Table 1.
A general note: ELISA stands for enzyme-linked immunosorbent assay.

The test system of a further assay is rats. In words: Reverse Passive Arthus Reaction in Rats (RPA). The assay is classed as in vivo, male Sprague Dawley rats. The conditions noted are these: single dose of 3 mg IV, rat, 4 hours after BSA. The text has this:
The reverse passive Arthus reaction in rats is a modification of the method by Mulligan et al., as described in J. Clin. Invest, (1991) 88: 1396-1406. This is an experimental model in which the interaction of antigen-antibodycomplexes and complement leads to a severe vasculitis that is associated with edema, induration, erythema and hemorrhage. The interaction between the antigen-antibody complexes and complement leads to a localized influx of neutrophils. These neutrophils release a variety of mediators that are associated with tissue damage and vascular permeability. The localized inflammatory reaction is measured using different techniques i.e., vascular permeability and neutrophil influx which is evaluated both biochemically and microscopically.
Male Sprague Dawley specific pathogen-free rats with jugular vein cannulae (280-320 g, Hill Top Labs, Pennsylvania) are used in these studies. Animals are acclimated for at least 1 day and individually housed in stainless steel cages. The dorsal region of the rats is closely clipped 2 days prior to the experiments and divided into 4 sites on each side of the midline. Prior to all injections the rats are sedated with 0.4 ml per 300 gm rat of ketamine/rompun [1000 mg (10 ml) of ketamine HCl is mixed with 40 mg (2.0 ml) Rompun] administered IP and or inhalation anesthesia with metafane (methoxyflurane).
Bovin Serum Albumin (BSA) and rabbit polyclonal IgG rich in anti-BSA are purchased from Sigma Chemical Co. (St. Louis, Mo.). Radiolabelled ^125 I-BSA (spAct 1-5 μCi/μg) is purchased from Dupont NEN (Boston, Mass.).
Each rat is administered intradermal (ID) injection of (0.4 mg, 0.6 mg and 0.8 mg) anti-BSA in a volume of 100 μl per injection in normal saline. The ID injections are randomized near the mid dorsal region on both sides of the back bone. Immediately after the ID injections of the anti-BSA, the rats are administered intravenous (IV) injections of BSA (10 mg in 1.0 ml) in normal saline containing ^125 I labeled BSA (1 μCi/ml BSA or 5.0 μCi/kg body/wt) for quantification of dermal valscular injury. Anti-inflammatory agents such as inhibitors of adhesion molecules of the present invention are administered IV at a single dose of 3 mg immediately after BSA. Four (4) hours after the IV injection of BSA, the rats are anesthetized with metafane and 2 to 3 ml of blood is withdrawn via the cannula into an anticoagulant containing (EDTA or Heparin) tube and plasma separated and saved for neutrophil and albumin quantitation. The rats are killed and the skin surrounding the injection site (15 mm diameter) is punched out and weighed. The skin sample and a fixed volume of plasma (0.1 to 1.0 ml) is analyzed in a gamma-counter for ^125 I content. Skin samples from the contralateral side are processed and analyzed for myeloperoxidase activity (MPO) as a measure of neutrophil accumulation. As needed, samples are also processed for histological evaluation of the reacted sites.
The calculation of the plasma protein exudation into skin is made by determining the radioactivity in the tissue and relating this to the level of radioactive albumin in the blood at the time of sacrifice. […] [formula]
Percent inhibition of the test compound at 3 mg was determined as follows: [formula] Myeloperoxidase (MPO)
MPO is located in the azurophil granules of polymorphonuclear leukocytes (PMN). Because of its abundance in these cells (5% dry weight), this enzyme is used as a marker for tissue neutrophil content. For tissue MPO content, the method of Bradley, et al., was used as described in J. Invest. Dermatol. (1982) 78: 206-209. Biopsies from each treatment group were placed in plastic tubes (15×100 mm) containing 10 ml of 0.5% hexadecyltrimethylammonium bromide (HTAB) in 0.05M potassium phosphate buffer pH 6.0. The tissue was then homogenized with a Brinkmann Polytron homogenizer (10s). […]

For assay [2], the system named is platelet: HL-60 cell adhesion. As to the kind of experiment: HL-60 Platelet Cell Adhesion Assay. The assay is classed as cell-based. The conditions noted are these: 0.5 h; thrombin-activated human platelets: HL-60 5:1, 30 minutes at room temperature; read-out: P-selectin HL-60 Platelets IC50. The method, then:
HL-60 cells, obtained from American Type Culture Collection, were cultured in RPMI 1640 medium (GIBCO) supplemented with 20% fetal calf serum (Sigma) and 50 μg/ml gentamicin (GIBCO). Cells in log phase growth were harvested, washed and resuspended in Tyrodes buffer containing 5 mM HEPES and 0.2% bovine serum albumin and were fixed with 1% buffered formalin.
Blood from normal human donors was anticoagulated with citrate, layered over 1-Step Platelets (Accurate Chemical Co.) and centrifuged at 350 g for 20 minutes at room temperature. The platelet band was collected, diluted in 2 volumes of Tyrode's Buffer with 5 mM HEPES, 10 mM EDTA, and 0.2% BSA (pH 7.4) (THEB) and centrifuged at 600 g for 10 minutes. The platelet pellet was resuspended in THEB and incubated at room temperature for 1 hour. Calcein-acetoxy methylester (Calcein-Am, Molecular Probes) was added to the platelets at a final concentration of 10 μM and incubated for 10 minutes at 37° C. to label the platelets. Without washing, the platelets were counted on a Coulter counter model ZM, and the concentration was adjusted to 1×10^7 /ml. The platelets were activated with 2 U/ml of human thrombin for 10 minutes in Tyrode's containing 2 mM CaCl2, 5 mM HEPES, and 0.2% BSA (pH 7.4) (THB) at 37° C. and immediately fixed with 1% buffered formalin for 1 to 2 hours at room temperature. A small aliquot of labeled platelets was removed before activation and designated as non-activated.
Both platelets and HL-60 were washed in a ≥25 fold excess volume of Hanks Balanced Salt Solution (HBSS), resuspended in THB and counted. Cell concentrations were adjusted to 2×10^7 /ml for platelets and 4×10^6 /ml for HL-60, this ratio determined to be optimum for platelet: HL-60 cell adhesion. Compounds were incubated with 50 μl of platelets for 30 minutes at room temperature before addition of 50 μl of HL-60. This ratio of 5:1 platelets to HL-60 was incubated for 30 minutes at room temperature before addition of 0.2 ml of THB to increase the volume so the samples could be analyzed on a FACScan cytometer (Becton Dickinson). Non-activated platelets, and activated platelets with 10 mM EDTA were included as controls. Data were collected within a region set for the forward scatter channel corresponding to HL-60 size events.
The percent HL-60 cells which contained bound platelets was determined for each test condition. The inhibition of binding was determined by comparison to standards which were treated with vehicle alone (representing 0% inhibition) and standards whose specific binding had been blocked by the use of EDTA (representing 100% inhibition), by the following formula: [formula] where x=HL-60 cells containing bound platelets in the presence of the compound;
b=HL-60 cells containing bound platelets in the presence of EDTA;
a=HL-60 cells containing bound platelets in the presence of compound vehicle;
z=% inhibition of platelet: HL-60 cell adhesion

Assay [3] deals with T1, P-selectin (Homo sapiens, UniProt P16109).
T1 sequence (P16109 42-830): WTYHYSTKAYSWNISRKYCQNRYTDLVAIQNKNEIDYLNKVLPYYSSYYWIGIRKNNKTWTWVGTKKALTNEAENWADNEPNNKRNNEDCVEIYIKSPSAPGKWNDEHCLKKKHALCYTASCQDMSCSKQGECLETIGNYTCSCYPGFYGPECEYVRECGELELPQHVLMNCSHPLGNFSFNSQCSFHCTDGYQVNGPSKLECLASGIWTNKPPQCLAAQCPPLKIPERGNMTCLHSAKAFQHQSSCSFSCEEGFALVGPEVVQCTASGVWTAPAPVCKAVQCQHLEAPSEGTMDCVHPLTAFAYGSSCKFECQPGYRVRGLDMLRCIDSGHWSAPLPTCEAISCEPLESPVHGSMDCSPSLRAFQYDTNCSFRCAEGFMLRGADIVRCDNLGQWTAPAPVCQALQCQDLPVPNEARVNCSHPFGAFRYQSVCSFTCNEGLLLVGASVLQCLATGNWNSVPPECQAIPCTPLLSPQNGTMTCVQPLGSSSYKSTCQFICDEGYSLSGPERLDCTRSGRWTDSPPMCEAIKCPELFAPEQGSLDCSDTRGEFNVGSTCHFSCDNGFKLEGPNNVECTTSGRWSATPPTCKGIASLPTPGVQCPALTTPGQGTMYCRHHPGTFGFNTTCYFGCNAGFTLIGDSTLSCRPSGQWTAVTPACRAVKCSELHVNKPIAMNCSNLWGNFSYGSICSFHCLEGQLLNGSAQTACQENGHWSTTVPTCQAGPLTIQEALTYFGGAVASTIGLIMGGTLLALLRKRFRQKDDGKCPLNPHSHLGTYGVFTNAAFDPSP
Conditions: literature; cited from earlier work.

The test system of another assay is myeloid cell lines. Conditions: cells grown in the presence of the substance; cited from earlier work.

A word on the IC50: it is the concentration at which inhibition is half-maximal.

Consider `CCCCCCCCCCCCC/C=C/[C@@H](OC(=O)c1ccccc1)[C@H](CO[C@H]1O[C@H](CO)[C@H](O)[C@H](OC(=O)c2ccccc2)[C@H]1OCCC(C(=O)O)C(=O)O)NC(=O)CCCCCCCCCCCCCCC` [Example 2, (2S,3R,4E)-3-Benzoyloxy-2-hexadecanoylamino-1-[2-O-(3,3-di-carboxyprop-1-yl)-3-O-benzoyl-α-D-galactopyranosyloxy]-4-octadecene], for which the IC50 in the assay on P-selectin [1] was found to be 8.2 µM. In the assay with rats, the “RPA MPO % Inhib. (myeloperoxidase)” value was 96% and the “RPA VP % Inhib. (vascular permeability)” value amounted to 41%. Also, in assay [2], the half-inhibitory concentration (IC50) was found to be 12 µM.

`CCCCCCCCCCCCC/C=C/[C@@H](OC(=O)c1ccccc1)[C@H](CO[C@H]1O[C@H](CO)[C@H](O)[C@H](OC(=O)c2ccccc2)[C@H]1OCCCCC(C(=O)O)C(=O)O)NC(=O)CCCCCCCCCCCCCCC` [Example 4, (2S,3R,4E)-3-Benzoyloxy-2-hexadecanoylamino-1-[2-O-(5,5-dicarboxypent-1-yl)-3-O-benzoyl-α-D-galactopyranosyloxy]-4-octadecene]: the IC50 in the assay on P-selectin [1] amounted to 7 µM. Moreover, in the assay with rats, the “RPA MPO % Inhib. (myeloperoxidase)” value came out at 84% and the “RPA VP % Inhib. (vascular permeability)” value amounted to 60%. Also, the IC50 in assay [2] amounted to 19 µM.

Turning to `CC(=O)N[C@H]1C(O)O[C@H](CO)[C@@H](O[C@@H]2O[C@H](CO)[C@H](O)[C@H](O)[C@H]2O)[C@@H]1O[C@@H]1O[C@@H](C)[C@@H](O)[C@@H](O)[C@@H]1O` (stereo partly shown) [Le^x], on P-selectin [3], the “binding to P-selectin” value is given as “shown to bind”.

Regarding `O=[Se](=O)(O)O` [sodium selenate], the “inhibition of binding of P-selectin to myeloid cell lines” value in the assay with myeloid cell lines is “can be inhibited”.
